Data from the supplement of paper PMC10307832.

Columns and labels:
Test in all cases: relative viability (nuclei count vs DMSO), 5 days (fraction); higher = more cells survive
ABC-1 = tested on: ABC-1
Method in brief: (§1)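 Dosing by pin tool came one day after lung cancer cell lines were seeded in 1536-well plates, using either one drug or a fixed anchor-drug dose plus five library-drug doses (not always all listed) in √10 steps. After 5 days, nuclei were counted on 4× images. Relative viability is treated-well nuclei count divided by vehicle-well nuclei count, and values are medians of duplicate plates.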

HCC-78 = tested on: HCC-78
Method in brief: as §1

NCI-H2170 = tested on: NCI-H2170
Method in brief: as §1

NCI-H1792 = tested on: NCI-H1792
Method in brief: as §1

NCI-H2023 = tested on: NCI-H2023
Method in brief: as §1

LOU-NH91 = tested on: LOU-NH91
Method in brief: as §1

NCI-H1755 = tested on: NCI-H1755
Method in brief: as §1

NCI-H1355 = tested on: NCI-H1355
Method in brief: as §1

LCLC-97TM1 = tested on: LCLC-97TM1
Method in brief: as §1

NCI-H727 = tested on: NCI-H727
Method in brief: as §1

NCI-H2085 = tested on: NCI-H2085
Method in brief: as §1

HOP-62 = tested on: HOP-62
Method in brief: as §1

NCI-H1437 = tested on: NCI-H1437
Method in brief: as §1

SK-MES-1 = tested on: SK-MES-1
Method in brief: as §1

NCI-H2405 = tested on: NCI-H2405
Method in brief: as §1

UMC-11 = tested on: UMC-11
Method in brief: as §1

NCI-H2009 = tested on: NCI-H2009
Method in brief: as §1

NCI-H23 = tested on: NCI-H23
Method in brief: as §1

NCI-H650 = tested on: NCI-H650
Method in brief: as §1

RERF-LC-KJ = tested on: RERF-LC-KJ
Method in brief: as §1

NCI-H322M = tested on: NCI-H322M
Method in brief: as §1

NCI-H441 = tested on: NCI-H441
Method in brief: as §1

SMILES: O=c1[nH]c2ccccc2n1C1CCN(CCCC(c2ccc(F)cc2)c2ccc(F)cc2)CC1 [Pimozide] + Cc1nc(NC(=O)N2CCC[C@H]2C(N)=O)sc1-c1ccnc(C(C)(C)C(F)(F)F)c1 [Alpelisib] (partner 2 µM)
- relative viability (ABC-1; first compound 0.08 µM): 0.915
- relative viability (ABC-1; first compound 0.253 µM): 1.03
- relative viability (ABC-1; first compound 0.8 µM): 0.834
- relative viability (ABC-1; first compound 2.53 µM): 0.842
- relative viability (ABC-1; first compound 8 µM): 0.675
- relative viability (HCC-78; first compound 0.08 µM): 0.406
- relative viability (HCC-78; first compound 0.253 µM): 0.366
- relative viability (HCC-78; first compound 0.8 µM): 0.294
- relative viability (HCC-78; first compound 2.53 µM): 0.293
- relative viability (HCC-78; first compound 8 µM): 0.329
- relative viability (NCI-H2170; first compound 0.08 µM): 0.753
- relative viability (NCI-H2170; first compound 0.253 µM): 0.792
- relative viability (NCI-H2170; first compound 0.8 µM): 0.822
- relative viability (NCI-H2170; first compound 2.53 µM): 0.74
- relative viability (NCI-H2170; first compound 8 µM): 0.714
- relative viability (NCI-H1792; first compound 0.08 µM): 0.874
- relative viability (NCI-H1792; first compound 0.253 µM): 0.661
- relative viability (NCI-H1792; first compound 0.8 µM): 0.668
- relative viability (NCI-H1792; first compound 2.53 µM): 0.575
- relative viability (NCI-H1792; first compound 8 µM): 0.836
- relative viability (NCI-H2023; first compound 0.08 µM): 0.524
- relative viability (NCI-H2023; first compound 0.253 µM): 0.632
- relative viability (NCI-H2023; first compound 0.8 µM): 0.533
- relative viability (NCI-H2023; first compound 2.53 µM): 0.535
- relative viability (NCI-H2023; first compound 8 µM): 0.461
- relative viability (LOU-NH91; first compound 0.08 µM): 0.459
- relative viability (LOU-NH91; first compound 0.253 µM): 0.731
- relative viability (LOU-NH91; first compound 0.8 µM): 0.723
- relative viability (LOU-NH91; first compound 2.53 µM): 0.733
- relative viability (LOU-NH91; first compound 8 µM): 0.7
- relative viability (NCI-H1755; first compound 0.08 µM): 0.918
- relative viability (NCI-H1755; first compound 0.253 µM): 0.885
- relative viability (NCI-H1755; first compound 0.8 µM): 0.87
- relative viability (NCI-H1755; first compound 2.53 µM): 0.786
- relative viability (NCI-H1755; first compound 8 µM): 0.727
- relative viability (NCI-H1355; first compound 0.08 µM): 0.81
- relative viability (NCI-H1355; first compound 0.253 µM): 0.873
- relative viability (NCI-H1355; first compound 0.8 µM): 0.811
- relative viability (NCI-H1355; first compound 2.53 µM): 0.662
- relative viability (NCI-H1355; first compound 8 µM): 0.817
- relative viability (LCLC-97TM1; first compound 0.08 µM): 0.28
- relative viability (LCLC-97TM1; first compound 0.253 µM): 0.239
- relative viability (LCLC-97TM1; first compound 0.8 µM): 0.207
- relative viability (LCLC-97TM1; first compound 2.53 µM): 0.224
- relative viability (LCLC-97TM1; first compound 8 µM): 0.271
- relative viability (NCI-H727; first compound 0.08 µM): 0.569
- relative viability (NCI-H727; first compound 0.253 µM): 0.582
- relative viability (NCI-H727; first compound 0.8 µM): 0.729
- relative viability (NCI-H727; first compound 2.53 µM): 0.547
- relative viability (NCI-H727; first compound 8 µM): 0.519
- relative viability (NCI-H2085; first compound 0.08 µM): 0.928
- relative viability (NCI-H2085; first compound 0.253 µM): 0.962
- relative viability (NCI-H2085; first compound 0.8 µM): 0.875
- relative viability (NCI-H2085; first compound 2.53 µM): 0.981
- relative viability (NCI-H2085; first compound 8 µM): 0.864
- relative viability (HOP-62; first compound 0.08 µM): 1.2
- relative viability (HOP-62; first compound 0.253 µM): 0.783
- relative viability (HOP-62; first compound 2.53 µM): 0.904
- relative viability (HOP-62; first compound 8 µM): 0.794
- relative viability (NCI-H1437; first compound 0.08 µM): 1.04
- relative viability (NCI-H1437; first compound 0.253 µM): 0.965
- relative viability (NCI-H1437; first compound 0.8 µM): 1.02
- relative viability (NCI-H1437; first compound 2.53 µM): 0.862
- relative viability (NCI-H1437; first compound 8 µM): 0.916
- relative viability (SK-MES-1; first compound 0.08 µM): 0.809
- relative viability (SK-MES-1; first compound 0.253 µM): 0.966
- relative viability (SK-MES-1; first compound 0.8 µM): 0.874
- relative viability (SK-MES-1; first compound 2.53 µM): 0.837
- relative viability (SK-MES-1; first compound 8 µM): 0.842
- relative viability (NCI-H2405; first compound 0.08 µM): 0.782
- relative viability (NCI-H2405; first compound 0.253 µM): 0.622
- relative viability (NCI-H2405; first compound 0.8 µM): 0.684
- relative viability (NCI-H2405; first compound 2.53 µM): 0.741
- relative viability (NCI-H2405; first compound 8 µM): 0.61
- relative viability (UMC-11; first compound 0.08 µM): 1.05
- relative viability (UMC-11; first compound 0.253 µM): 0.967
- relative viability (UMC-11; first compound 0.8 µM): 1.05
- relative viability (UMC-11; first compound 2.53 µM): 1.04
- relative viability (UMC-11; first compound 8 µM): 1.19
- relative viability (NCI-H2009; first compound 0.08 µM): 1.16
- relative viability (NCI-H2009; first compound 0.253 µM): 1.15
- relative viability (NCI-H2009; first compound 0.8 µM): 1.14
- relative viability (NCI-H2009; first compound 2.53 µM): 1.23
- relative viability (NCI-H2009; first compound 8 µM): 1.05
- relative viability (NCI-H23; first compound 0.08 µM): 0.577
- relative viability (NCI-H23; first compound 0.253 µM): 0.575
- relative viability (NCI-H23; first compound 0.8 µM): 0.718
- relative viability (NCI-H23; first compound 2.53 µM): 0.68
- relative viability (NCI-H23; first compound 8 µM): 0.745
- relative viability (NCI-H650; first compound 0.08 µM): 1.04
- relative viability (NCI-H650; first compound 0.253 µM): 1.05
- relative viability (NCI-H650; first compound 0.8 µM): 1.09
- relative viability (NCI-H650; first compound 2.53 µM): 1.07
- relative viability (NCI-H650; first compound 8 µM): 1.02
- relative viability (RERF-LC-KJ; first compound 0.08 µM): 0.693
- relative viability (RERF-LC-KJ; first compound 0.253 µM): 0.724
- relative viability (RERF-LC-KJ; first compound 0.8 µM): 0.807
- relative viability (RERF-LC-KJ; first compound 2.53 µM): 0.841
- relative viability (RERF-LC-KJ; first compound 8 µM): 0.711
- relative viability (NCI-H322M; first compound 0.253 µM): 0.835
- relative viability (NCI-H322M; first compound 0.8 µM): 0.819
- relative viability (NCI-H322M; first compound 2.53 µM): 0.695
- relative viability (NCI-H322M; first compound 8 µM): 0.716
- relative viability (NCI-H441; first compound 0.08 µM): 1.05
- relative viability (NCI-H441; first compound 0.253 µM): 0.733
- relative viability (NCI-H441; first compound 0.8 µM): 0.854
- relative viability (NCI-H441; first compound 2.53 µM): 0.574
- relative viability (NCI-H441; first compound 8 µM): 0.442
